Results taken from PubChem BioAssay (NCI).
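96-well plates; 48 h exposure; 5 concentrations. Endpoints by linear interpolation between flanking doses. Not reached: highest tested concentration assigned. The concentration for 50% growth inhibition is given as GI50. TGI: total growth inhibition.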

Assays:
Assay in all cases: growth of human tumour cells (NCI), 48 h
EKVX NSCLC = tested on: EKVX NSCLC
MALME-3M melanoma = tested on: MALME-3M melanoma
SK-OV-3 ovarian = tested on: SK-OV-3 ovarian
NCI/ADR-RES ovarian = tested on: NCI/ADR-RES ovarian
HCT-116 colon = tested on: HCT-116 colon
NCI-H460 lung = tested on: NCI-H460 lung
UACC-257 melanoma = tested on: UACC-257 melanoma
A549 NSCLC = tested on: A549 NSCLC
SF-539 CNS = tested on: SF-539 CNS
SK-MEL-28 melanoma = tested on: SK-MEL-28 melanoma
NCI-H23 lung = tested on: NCI-H23 lung
RXF 393 renal = tested on: RXF 393 renal
SW-620 colon = tested on: SW-620 colon
UO-31 renal = tested on: UO-31 renal
SN12C renal = tested on: SN12C renal
DU-145 prostate = tested on: DU-145 prostate
SNB-19 CNS = tested on: SNB-19 CNS
A498 renal = tested on: A498 renal
MDA-MB-435 = tested on: MDA-MB-435
OVCAR-8 ovarian = tested on: OVCAR-8 ovarian
HL-60(TB) leukemia = tested on: HL-60(TB) leukemia
K-562 leukemia = tested on: K-562 leukemia
IGROV1 ovarian = tested on: IGROV1 ovarian
SK-MEL-5 melanoma = tested on: SK-MEL-5 melanoma
MDA-MB-231 breast = tested on: MDA-MB-231 breast
SF-295 CNS = tested on: SF-295 CNS
OVCAR-3 ovarian = tested on: OVCAR-3 ovarian
COLO 205 colon = tested on: COLO 205 colon
SK-MEL-2 melanoma = tested on: SK-MEL-2 melanoma
OVCAR-4 ovarian = tested on: OVCAR-4 ovarian
786-0 renal = tested on: 786-0 renal
MCF7 breast = tested on: MCF7 breast
RPMI-8226 leukemia = tested on: RPMI-8226 leukemia
SF-268 CNS = tested on: SF-268 CNS
ACHN renal = tested on: ACHN renal
UACC-62 melanoma = tested on: UACC-62 melanoma
T-47D breast = tested on: T-47D breast
OVCAR-5 ovarian = tested on: OVCAR-5 ovarian
HOP-62 NSCLC = tested on: HOP-62 NSCLC
MOLT-4 leukemia = tested on: MOLT-4 leukemia
BT-549 breast = tested on: BT-549 breast
HCT-15 colon = tested on: HCT-15 colon
U251 CNS = tested on: U251 CNS
HS 578T breast = tested on: HS 578T breast
KM12 colon = tested on: KM12 colon
LOX IMVI melanoma = tested on: LOX IMVI melanoma
SNB-75 CNS = tested on: SNB-75 CNS
HT29 colon = tested on: HT29 colon
SR leukemia = tested on: SR leukemia
HOP-92 NSCLC = tested on: HOP-92 NSCLC
CAKI-1 renal = tested on: CAKI-1 renal
PC-3 prostate = tested on: PC-3 prostate
NCI-H226 lung = tested on: NCI-H226 lung
M14 melanoma = tested on: M14 melanoma
CCRF-CEM leukemia = tested on: CCRF-CEM leukemia
TK-10 renal = tested on: TK-10 renal

COc1ccc2c(c1)OCC1c3cc(O)ccc3OC21 (configuration not stated)
GI50 (EKVX NSCLC): 27.8 µM | TGI (EKVX NSCLC): > 100 µM | GI50 (MALME-3M melanoma): 60.2 µM | TGI (MALME-3M melanoma): > 100 µM | GI50 (SK-OV-3 ovarian): 63.2 µM | TGI (SK-OV-3 ovarian): > 100 µM | GI50 (NCI/ADR-RES ovarian): 33.2 µM | TGI (NCI/ADR-RES ovarian): > 100 µM | GI50 (HCT-116 colon): 51.4 µM | TGI (HCT-116 colon): > 100 µM | GI50 (NCI-H460 lung): 25 µM | TGI (NCI-H460 lung): > 100 µM | GI50 (UACC-257 melanoma): 78.3 µM | TGI (UACC-257 melanoma): > 100 µM | GI50 (A549 NSCLC): 60.9 µM | TGI (A549 NSCLC): > 100 µM | GI50 (SF-539 CNS): 54.5 µM | TGI (SF-539 CNS): > 100 µM | GI50 (SK-MEL-28 melanoma): > 100 µM | TGI (SK-MEL-28 melanoma): > 100 µM | GI50 (NCI-H23 lung): 30.1 µM | TGI (NCI-H23 lung): > 100 µM | GI50 (RXF 393 renal): 72.6 µM | TGI (RXF 393 renal): > 100 µM | GI50 (SW-620 colon): > 100 µM | TGI (SW-620 colon): > 100 µM | GI50 (UO-31 renal): 24.3 µM | TGI (UO-31 renal): > 100 µM | GI50 (SN12C renal): 73.3 µM | TGI (SN12C renal): > 100 µM | GI50 (DU-145 prostate): 75.8 µM | TGI (DU-145 prostate): > 100 µM | GI50 (SNB-19 CNS): 52.1 µM | TGI (SNB-19 CNS): > 100 µM | GI50 (A498 renal): 40.2 µM | TGI (A498 renal): > 100 µM | GI50 (MDA-MB-435): 44.8 µM | TGI (MDA-MB-435): > 100 µM | GI50 (OVCAR-8 ovarian): > 100 µM | TGI (OVCAR-8 ovarian): > 100 µM | GI50 (HL-60(TB) leukemia): 3.16 µM | TGI (HL-60(TB) leukemia): 27.3 µM | GI50 (K-562 leukemia): 63.5 µM | TGI (K-562 leukemia): > 100 µM | GI50 (IGROV1 ovarian): 36 µM | TGI (IGROV1 ovarian): 99.4 µM | GI50 (SK-MEL-5 melanoma): 33 µM | TGI (SK-MEL-5 melanoma): > 100 µM | GI50 (MDA-MB-231 breast): 13.7 µM | TGI (MDA-MB-231 breast): 92.2 µM | GI50 (SF-295 CNS): 9.91 µM | TGI (SF-295 CNS): 90.9 µM | GI50 (OVCAR-3 ovarian): 27 µM | TGI (OVCAR-3 ovarian): > 100 µM | GI50 (COLO 205 colon): 32.7 µM | TGI (COLO 205 colon): > 100 µM | GI50 (SK-MEL-2 melanoma): > 100 µM | TGI (SK-MEL-2 melanoma): > 100 µM | GI50 (OVCAR-4 ovarian): 28.1 µM | TGI (OVCAR-4 ovarian): > 100 µM | GI50 (786-0 renal): 78.9 µM | TGI (786-0 renal): > 100 µM | GI50 (MCF7 breast): 12.8 µM | TGI (MCF7 breast): 86.4 µM | GI50 (RPMI-8226 leukemia): 32.8 µM | TGI (RPMI-8226 leukemia): > 100 µM | GI50 (SF-268 CNS): 11 µM | TGI (SF-268 CNS): 74 µM | GI50 (ACHN renal): 35.8 µM | TGI (ACHN renal): > 100 µM | GI50 (UACC-62 melanoma): 35.9 µM | TGI (UACC-62 melanoma): > 100 µM | GI50 (T-47D breast): 16.2 µM | TGI (T-47D breast): 65.4 µM | GI50 (OVCAR-5 ovarian): 39.5 µM | TGI (OVCAR-5 ovarian): > 100 µM | GI50 (HOP-62 NSCLC): > 100 µM | TGI (HOP-62 NSCLC): > 100 µM | GI50 (MOLT-4 leukemia): 35.4 µM | TGI (MOLT-4 leukemia): > 100 µM | GI50 (BT-549 breast): 39 µM | TGI (BT-549 breast): > 100 µM | GI50 (HCT-15 colon): 40.6 µM | TGI (HCT-15 colon): > 100 µM | GI50 (U251 CNS): 54.9 µM | TGI (U251 CNS): > 100 µM | GI50 (HS 578T breast): 41.2 µM | TGI (HS 578T breast): > 100 µM | GI50 (KM12 colon): 38.7 µM | TGI (KM12 colon): > 100 µM | GI50 (LOX IMVI melanoma): 42.1 µM | TGI (LOX IMVI melanoma): > 100 µM | GI50 (SNB-75 CNS): 34 µM | TGI (SNB-75 CNS): > 100 µM | GI50 (HT29 colon): 47.5 µM | TGI (HT29 colon): > 100 µM | GI50 (SR leukemia): 46.3 µM | TGI (SR leukemia): > 100 µM | GI50 (HOP-92 NSCLC): 39.6 µM | TGI (HOP-92 NSCLC): > 100 µM | GI50 (CAKI-1 renal): 32.5 µM | TGI (CAKI-1 renal): > 100 µM | GI50 (PC-3 prostate): 34.4 µM | TGI (PC-3 prostate): > 100 µM | GI50 (NCI-H226 lung): 18.6 µM | TGI (NCI-H226 lung): > 100 µM | GI50 (M14 melanoma): 72.5 µM | TGI (M14 melanoma): > 100 µM | GI50 (CCRF-CEM leukemia): 25.1 µM | TGI (CCRF-CEM leukemia): > 100 µM | GI50 (TK-10 renal): 38.9 µM | TGI (TK-10 renal): > 100 µM
